Data set [1] deals with HeLa. The data set can be described thus: Cytotoxicity against human HeLa Ohio-1 cells.
Data set [2] is described as follows: Cytotoxicity against human HeLa Ohio-1 cells. Type of data set: cell-based.
Data set [3] can be described thus: Selectivity index, CC50 for human FL cells to IC50 for Coxsackievirus B1. The data set is classed as functional.
A short description of data set [4]: Cytotoxicity against human FL cells after 24 hrs. The data set is classed as cell-based.
Data set [5] in a line: Selectivity index, CC50 for human HeLa Ohio-1 cells to IC50 for Human rhinovirus type 14. The data set is classed as functional.
Data set [6] has as its system Coxsackievirus B1. In words: Antiviral activity against Coxsackievirus B1 in human FL cells. Type of data set: functional, organism-based. Particulars: Enterovirus B.
The nature of data set [7]: Selectivity index, CC50 for human FL cells to IC50 for Echovirus 13. Type of data set: functional.
Data set [8] deals with Poliovirus 1. In words: Antiviral activity against Poliovirus type 1 Lsc-2ab in human FL cells. The data set is classed as functional, organism-based. Particulars: Enterovirus C.
A short description of data set [9]: Selectivity index, CC50 for human FL cells to IC50 for Poliovirus type 1 Lsc-2ab. Type of data set: functional.
The subject of data set [10] is Echovirus E13. The data set can be described thus: Antiviral activity against Echovirus 13 in human FL cells. The data set is classed as functional, organism-based. Particulars: Enterovirus B.
Data set [11] relates to Radical scavenging activity. The data set can be described thus: Antioxidant activity assessed as DPPH free radical scavenging activity at 1.8 mM after 10 mins. The data set is classed as functional. (In general: Loss of DPPH colour is used to gauge radical scavenging.)
Data set [12] deals with Radical scavenging activity. In words: Antioxidant activity assessed as DPPH free radical scavenging activity at 0.9 mM after 10 mins. The data set is classed as functional.
Data set [13] concerns Radical scavenging activity. The data set can be described thus: Antioxidant activity assessed as DPPH free radical scavenging activity at 3.6 mM after 20 mins. The data set is classed as functional.
The test system of data set [14] is Radical scavenging activity. The data set can be described thus: Antioxidant activity assessed as DPPH free radical scavenging activity at 3.6 mM after 10 mins. Type of data set: functional.
Data set [15] relates to Radical scavenging activity. In words: Antioxidant activity assessed as DPPH free radical scavenging activity at 0.9 mM after 20 mins. The data set is classed as functional.
Data set [16] deals with Radical scavenging activity. In words: Antioxidant activity assessed as DPPH free radical scavenging activity at 1.8 mM after 20 mins. The data set is classed as functional.
Data set [17] relates to Poliovirus 1. In words: Antiviral activity against Poliovirus type 1 Lsc-2ab in human FL cells assessed as inhibition of cytopathic effect relative to control. The data set is classed as functional. For orientation: Protection from cytopathic effect is a common read-out in antiviral testing.
Data set [18] concerns Echovirus E13. In words: Antiviral activity against Echovirus 13 in human FL cells assessed as inhibition of cytopathic effect relative to control. Type of data set: functional.
Data set [19] relates to Coxsackievirus B1. In words: Antiviral activity against Coxsackievirus B1 in human FL cells assessed as inhibition of cytopathic effect relative to control. The data set is classed as functional.

SMILES strings stand for the structures.

One may read the CC50 as the concentration that lowers cell viability or growth by half. By IC50 is commonly meant the concentration that gives 50% inhibition. High values mean weaker potency in that assay, low ones greater potency in that assay. In the case of `Cc1cc(CCCCCCCOc2ccc(C3=NCCO3)cc2)on1` [DISOXARIL], the CC50 in data set [1] was 21 µM. Moreover, the IC50 turned out to be 1.5 µM in data set [2], 2 µM in [6], 2 µM in data set [8] and 1.3 µM in data set [10]. Further, the “Ratio CC50/IC50” value in [3] is listed as 12.5; in data set [5], 14; in [7], 19.2; in [9], 12.5. The half-maximal cytotoxic concentration (CC50) at 24 h in data set [4] turned out to be 25 µM.
In the case of `O=C(O)/C=C/c1ccc(O)cc1`, the Activity in data set [11] amounted to 3.7%; in data set [12], 2.1%; in data set [13] it was 6.1%; in [14] it was 4.5%; in data set [15] it was 2.9%; in data set [16], 4.7%.
For `COc1cc(/C=C/C(=O)NCc2c3c4c(c(OC)c2OC)-c2cc(OC)c(OC)cc2CC4N(C)CC3)ccc1O` (centres undefined), the results for the “inhibition (INH)” value in [17], in [18] and in data set [19] were 0%, “<=25%” and 0%, respectively. Also, the Activity was 16.6% in [11]; 8.3% in data set [12]; 36.1% in data set [13]; 31.2% in [14]; 10.1% in [15]; 19.4% in data set [16]. Also, the midpoint of cytotoxicity in data set [1], the CC50, lay at 113 µM. In data set [2], inhibition was half-maximal at 12 µM (IC50). It took 105 µM to reach half-maximal cytotoxicity in data set [4] (CC50 at 24 h). For the same compound, the “Ratio CC50/IC50” value in [5] is on record as 9.4.
In the case of `COc1cc2c(cc1OC)-c1c(OC)c(OC)c(CN)c3c1C(C2)N(C)CC3` (centres undefined), the Activity was determined as 2.2% in data set [11]; 1.6% in data set [12]; 3.8% in data set [13]; 2.9% in data set [14]; 2.5% in data set [15]; 3% in [16].
`COc1cc2c(cc1OC)-c1c(OC)c(OC)cc3c1[C@H](C2)N(C)CC3` [GLAUCINE]: the Activity came to 1.1% in [11]; 0.8% in data set [12]; 1.6% in data set [13]; 1.4% in data set [14]; 1.2% in data set [15]; 1.3% in data set [16]. Also, in data set [1], it took 182 µM to reach half-maximal cytotoxicity (CC50). For the same compound, the IC50 in [2] was determined as 22 µM; in data set [6], 21 µM; in data set [8] it was 60 µM; in data set [10], 60 µM. The “Ratio CC50/IC50” value in data set [3] stood at 5.5; in [5] it was 8.3; in [7], 1.9; in data set [9] it was 1.9. Moreover, the CC50 at 24 h in [4] was determined as 115 µM.
`COc1cc2c(cc1OC)-c1c(OC)c(OC)c(CNC(=O)/C=C/c3cc(OC)c(O)c(OC)c3)c3c1C(C2)N(C)CC3` (centres undefined): the “inhibition (INH)” value in data set [17], in data set [18] and in [19] was 0% each time. Moreover, the Activity in [11] was determined as 14.4%; in [12], 8%; in data set [13] it was 31.6%; in [14] it was 26.3%; in data set [15], 10.5%; in data set [16], 18%. Besides, the CC50 in data set [1] was determined as 125 µM. In data set [2], this compound displayed an IC50 of 28 µM. Further, the CC50 at 24 h in [4] was found to be 112 µM. For the same compound, the “Ratio CC50/IC50” value in data set [5] is on record as 4.5.
Take `COc1cc(/C=C/C(=O)O)cc(OC)c1O`: the Activity was determined as 26.5% in data set [11]; 16.1% in data set [12]; 69.6% in data set [13]; 69% in data set [14]; 17.2% in data set [15]; 31.9% in [16].
As for `O=C(O)/C=C/c1ccccc1O`, the Activity in data set [11] was found to be 2.2%; in [12], 2.1%; in data set [13], 3.6%; in [14], 3.3%; in data set [15], 2.4%; in [16], 2.7%.
Regarding `COc1cc(/C=C/C(=O)O)ccc1O`, the Activity was 21% in [11]; 12% in data set [12]; 44.3% in data set [13]; 36.7% in [14]; 13.8% in data set [15]; 25.1% in data set [16].
Consider `COc1cc2c(cc1OC)-c1c(OC)c(OC)c(CNC(=O)/C=C/c3ccc(O)cc3)c3c1C(C2)N(C)CC3` (centres undefined), for which the “inhibition (INH)” value in [17] is <50%; in data set [19], 0%. Also, the Activity in [11] is 2%; in [12], 1.8%; in data set [13], 4.8%; in [14], 3.2%; in data set [15] it was 1.8%; in data set [16], 2.5%. Besides, in data set [1], the CC50 turned out to be 143 µM. Moreover, the IC50 came to 13 µM in [2] and 32 µM in data set [10]. For the same compound, in data set [4], the midpoint of cytotoxicity, the CC50 at 24 h, lay at 160 µM. The “Ratio CC50/IC50” value came out at 11 in data set [5] and 5 in [7].
As for `COc1cc2c(cc1OC)-c1c(OC)c(OC)c(CNC(=O)/C=C/c3ccccc3O)c3c1C(C2)N(C)CC3` (centres undefined), the “inhibition (INH)” value in data set [17] was “<=25%”; in [18], 0%; in [19], 0%. Moreover, the Activity in data set [11] was found to be 2.3%; in data set [12] it was 1.1%; in data set [13], 4.2%; in data set [14], 3.3%; in [15] it was 0.8%; in [16], 3.6%. In data set [1], it took 155 µM to reach half-maximal cytotoxicity (CC50). Further, the IC50 in [2] amounted to 15 µM. In addition, it took 152 µM to reach half-maximal cytotoxicity in data set [4] (CC50 at 24 h). Further, in data set [5], the “Ratio CC50/IC50” value came out at 10.3.
As for `COc1cc2c(cc1OC)-c1c(OC)c(OC)cc3ccnc(c13)C2=O` [OXOGLAUCINE], the CC50 in data set [1] came out at 51 µM. Moreover, the IC50 was 0.3 µM in [2], 2.5 µM in [6], 1.2 µM in [8] and 0.5 µM in [10]. Moreover, the “Ratio CC50/IC50” value in data set [3] amounted to 20.8; in data set [5], 170; in data set [7] it was 104; in data set [9] it was 43.3. Moreover, in data set [4], the CC50 at 24 h came to 52 µM.
